How the values were obtained:
hCRTH2 receptor [1] = molecular target: T1, hCRTH2 receptor (Homo sapiens (Human), UniProt Q9Y5Y4); experiment: hCRTH2 receptor membranes radioligand (3H-PGD2) displacement assay; conditions: 3H-PGD2 2.5 nM, HEK293-hCRTH2 membrane fragments, Binding-Buffer with 0.1% BSA
Description: (§1) First, recombinant HEK293-hCRTH2 cells were detached from culture plates into 5 ml buffer A/plate (Buffer A: 5 mM Tris, 1 mM MgCl2-6H2O pH=7.4) using a rubber policeman. Cells were then transferred into centrifugation tubes and centrifuged for 5 min at 400 g. The cell pellet was resuspended in the same buffer and tubes were frozen at −80° C. Cells were thawed and membrane fragments were generated by homogenization using a polytron homogenizer (30 seconds). The membrane fragments were then centrifuged at 3000 g for 20 minutes and resuspended in buffer C (Buffer C: 75 mM Tris, 25 mM MgCl2, 250 mM Saccharose pH 7.4). Aliquots of membrane fragments were stored at −20° C.
(§2) Binding assay was performed in a final assay volume of 250 μl. First, 25 μl of test compound, previously diluted in Binding-Buffer (Binding-Buffer: 50 mM Tris-Base, 100 mM NaCl, 1 mM EDTA, 0.1% BSA (protease free), 0.01% NaN3, 10 mM MnCl2 pH 7.0) was placed into each well. After addition of 75 μl Binding-Buffer, 50 μl of the radioligand ^3H-PGD2 (at 2.5 nM (220.000 dpm/well) from ANAWA ART0662) was added to each well. Binding assay was started by addition of 100 μl CRTH2 membrane fragments, reaching a final concentration of 20 μg/well. For non-specific binding, PGD2 was added to the reaction mixture to […] final concentration. This assay mix was incubated for 90 minutes at room temperature and then filtered through a GF/C filter 96-well plate which was pre-soaked for 3 hours in 0.5% polyethyleneimine (PEI). The filter-wells were washed three times with ice cold Binding-Buffer. Then, 40 μl of Microscint-40 (Packard) was added to each well and the retained radioactivity quantified in a Topcount (Packard).

hCRTH2 receptor [2] = molecular target: T1, hCRTH2 receptor; experiment: Radioligand displacement assay in presence of human serum albumin (HSA); conditions: 3H-PGD2 2.5 nM, HEK293-hCRTH2 membrane fragments, Binding-Buffer-HSA with 0.5% human serum albumin instead of 0.1% BSA
Description: as §1, §2
Radioligand displacement assay in presence of human serum albumin (HSA) was performed as described above, with following modifications. Binding-Buffer-HSA: Binding-buffer+0.5% Sigma Albumin from Human serum A1887 (instead of 0.1% BSA). A volume of 25 μl test compound, previously diluted in Binding-Buffer-HSA was placed into each well. After addition of 75 μl Binding-Buffer-HSA, 50 μl of ^3H-PGD2 (at 2.5 nM (220.000 dpm/well) from ANAWA ART0662) was added to each well. Remaining protocol was identical as described above.

T1 sequence (Q9Y5Y4 whole entry, the tested form may be a part): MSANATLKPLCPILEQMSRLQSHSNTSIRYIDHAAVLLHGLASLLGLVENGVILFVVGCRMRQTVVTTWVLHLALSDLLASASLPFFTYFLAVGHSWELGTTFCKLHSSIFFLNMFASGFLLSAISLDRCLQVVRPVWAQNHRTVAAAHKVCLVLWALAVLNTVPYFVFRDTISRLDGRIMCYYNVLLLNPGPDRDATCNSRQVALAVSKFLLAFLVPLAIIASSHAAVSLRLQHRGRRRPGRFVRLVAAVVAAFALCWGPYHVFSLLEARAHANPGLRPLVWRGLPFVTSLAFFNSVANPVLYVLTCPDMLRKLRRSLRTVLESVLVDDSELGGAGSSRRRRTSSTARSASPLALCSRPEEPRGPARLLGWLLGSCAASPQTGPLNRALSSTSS

| IC50 (hCRTH2 receptor [1]) [nM] | IC50 (hCRTH2 receptor [2]) [nM] | Compound |
| --- | --- | --- |
| 16 | 15 | CN(c1nc2ccc(F)cc2s1)C1CCc2c(CC(=O)O)c3ccc(C(F)(F)F)cc3n2C1 (centres unmarked) [Example 26, 2-(7-((6-fluorobenzo[d]thiazol-2-yl)(methyl)amino)-3-(trifluoromethyl)-6,7,8,9-tetrahydropyrido[1,2-a]indol-10-yl)acetic acid] |
| 8 | 20 | CN(c1nc2cc(F)ccc2o1)C1CCc2c(CC(=O)O)c3ccc(C(F)(F)F)cc3n2C1 (centres unmarked) [Example 28, 2-(7-((5-fluorobenzo[d]oxazol-2-yl)(methyl)amino)-3-(trifluoromethyl)-6,7,8,9-tetrahydropyrido[1,2-a]indol-10-yl)acetic acid] |
| 9 | 43 | CN(c1nc2ccc(F)cc2s1)C1CCc2c(CC(=O)O)c3ccccc3n2C1 (centres unmarked) [Example 4, 2-(7-((6-fluorobenzo[d]thiazol-2-yl)(methyl)amino)-6,7,8,9-tetrahydropyrido[1,2-a]indol-10-yl)acetic acid] |
| 1 | 20 | CN(c1nc2ccc(F)cc2o1)C1CCc2c(CC(=O)O)c3ccc(F)cc3n2C1 (centres unmarked) [Example 20, 2-(3-fluoro-7-((6-fluorobenzo[d]oxazol-2-yl)(methyl)amino)-6,7,8,9-tetrahydropyrido[1,2-a]indol-10-yl)acetic acid] |
| 42 | > 1000 | Cc1ccc2c(c1)c(CC(=O)O)c1n2CC(N(C)c2nc3cc(F)ccc3o2)CC1 (centres unmarked) [Example 14, 2-(7-((5-fluorobenzo[d]oxazol-2-yl)(methyl)amino)-2-methyl-6,7,8,9-tetrahydropyrido[1,2-a]indol-10-yl)acetic acid] |
| 1 | 21 | CCCN(c1ncc(F)cn1)C1CCc2c(CC(=O)O)c3ccc(Cl)cc3n2C1 (centres unmarked) [Example 49, 2-(3-chloro-7-((5-fluoropyrimidin-2-yl)(propyl)amino)-6,7,8,9-tetrahydropyrido[1,2-a]indol-10-yl)acetic acid] |
| 0.6 | 9 | O=C(O)Cc1c2n(c3cc(Cl)ccc13)CC(N(CC1CC1)c1ncc(F)cn1)CC2 (centres unmarked) [Example 51, 2-(3-chloro-7-((cyclopropylmethyl)(5-fluoropyrimidin-2-yl)amino)-6,7,8,9-tetrahydropyrido[1,2-a]indol-10-yl)acetic acid] |
| 1 | 37 | CN(c1ncc2ccc(F)cc2n1)C1CCc2c(CC(=O)O)c3ccc(Cl)cc3n2C1 (centres unmarked) [Example 41, 2-(3-chloro-7-((7-fluoroquinazolin-2-yl)(methyl)amino)-6,7,8,9-tetrahydropyrido[1,2-a]indol-10-yl)acetic acid] |
| 51 |  | CN(c1nc2cc(F)ccc2s1)C1CCc2c(CC(=O)O)c3ccc(F)cc3n2C1 (centres unmarked) [Example 19, 2-(3-fluoro-7-((5-fluorobenzo[d]thiazol-2-yl)(methyl)amino)-6,7,8,9-tetrahydropyrido[1,2-a]indol-10-yl)acetic acid] |
| 1 | 9 | CCN(c1nc2cc(F)ccc2o1)C1CCc2c(CC(=O)O)c3ccc(Cl)cc3n2C1 (centres unmarked) [Example 50, 2-(3-chloro-7-(ethyl(5-fluorobenzo[d]oxazol-2-yl)amino)-6,7,8,9-tetrahydropyrido[1,2-a]indol-10-yl)acetic acid] |
| 1 | 10 | CN(c1ncc(F)cn1)C1CCc2c(CC(=O)O)c3ccc(F)cc3n2C1 (centres unmarked) [Example 9, 2-(3-fluoro-7-((5-fluoropyrimidin-2-yl)(methyl)amino)-6,7,8,9-tetrahydropyrido[1,2-a]indol-10-yl)acetic acid] |
| 812 |  | CN(c1nc2ccc(F)cc2s1)C1CCc2c(CC(=O)O)c3cc(OC(F)(F)F)ccc3n2C1 (centres unmarked) [Example 27, 2-(7-((6-fluorobenzo[d]thiazol-2-yl)(methyl)amino)-2-(trifluoromethoxy)-6,7,8,9-tetrahydropyrido[1,2-a]indol-10-yl)acetic acid] |
| 71 |  | Cc1nc(N(C)C2CCc3c(CC(=O)O)c4ccc(Cl)cc4n3C2)c2ccccc2n1 (centres unmarked) [Example 42, 2-(3-chloro-7-(methyl(2-methylquinazolin-4-yl)amino)-6,7,8,9-tetrahydropyrido[1,2-a]indol-10-yl)acetic acid] |
| 136 |  | CN(c1ncc(F)cn1)C1CCc2c(CC(=O)O)c3cc(Cl)ccc3n2C1 (centres unmarked) [Example 15, 2-(2-chloro-7-((5-fluoropyrimidin-2-yl)(methyl)amino)-6,7,8,9-tetrahydropyrido[1,2-a]indol-10-yl)acetic acid] |
| 964 |  | CN(c1nc2cc(F)ccc2o1)C1CCc2c(CC(=O)O)c3cc(OC(F)(F)F)ccc3n2C1 (centres unmarked) [Example 29, 2-(7-((5-fluorobenzo[d]oxazol-2-yl)(methyl)amino)-2-(trifluoromethoxy)-6,7,8,9-tetrahydropyrido[1,2-a]indol-10-yl)acetic acid] |
| 231 |  | COc1ccc2c(c1)c(CC(=O)O)c1n2CC(N(C)c2nc3cc(F)ccc3o2)CC1 (centres unmarked) [Example 12, 2-(7-((5-fluorobenzo[d]oxazol-2-yl)(methyl)amino)-2-methoxy-6,7,8,9-tetrahydropyrido[1,2-a]indol-10-yl)acetic acid] |

The remaining lines, values behind:

| Compound | IC50 (hCRTH2 receptor [1]) [nM] | IC50 (hCRTH2 receptor [2]) [nM] |
| --- | --- | --- |
| CN(c1ncc(F)cn1)C1CCc2c(CC(=O)O)c3ccc(C(F)(F)F)cc3n2C1 (centres unmarked) [Example 24, 2-(7-((5-fluoropyrimidin-2-yl)(methyl)amino)-3-(trifluoromethyl)-6,7,8,9-tetrahydropyrido[1,2-a]indol-10-yl)acetic acid] | 5 | 11 |
| CN(c1ncc(F)cn1)C1CCc2c(CC(=O)O)c3cc(F)ccc3n2C1 (centres unmarked) [Example 7, 2-(2-fluoro-7-((5-fluoropyrimidin-2-yl)(methyl)amino)-6,7,8,9-tetrahydropyrido[1,2-a]indol-10-yl)acetic acid] | 17 | 119 |
| O=C(O)Cc1c2n(c3cc(F)ccc13)CC(Nc1ncc(F)cn1)CC2 (centres unmarked) [Example 34, 2-(3-fluoro-7-((5-fluoropyrimidin-2-yl)amino)-6,7,8,9-tetrahydropyrido[1,2-a]indol-10-yl)acetic acid] | 9 | 304 |
| O=C(O)Cc1c2n(c3cc(Cl)ccc13)CC(Nc1ncc(Cl)cn1)CC2 (centres unmarked) [Example 37, 2-(3-chloro-7-((5-chloropyrimidin-2-yl)amino)-6,7,8,9-tetrahydropyrido[1,2-a]indol-10-yl)acetic acid] | 27 | 385 |
| COc1ccc2c(c1)c(CC(=O)O)c1n2CC(N(C)c2ncc(F)cn2)CC1 (centres unmarked) [Example 11, 2-(7-((5-fluoropyrimidin-2-yl)(methyl)amino)-2-methoxy-6,7,8,9-tetrahydropyrido[1,2-a]indol-10-yl)acetic acid] | 420 |  |
| CN(c1ncc(C(F)(F)F)cn1)C1CCc2c(CC(=O)O)c3ccccc3n2C1 (centres unmarked) [Example 3, 2-(7-(methyl(5-(trifluoromethyl)pyrimidin-2-yl)amino)-6,7,8,9-tetrahydropyrido[1,2-a]indol-10-yl)acetic acid] | 8 | 152 |
| CN(c1ncc(Cl)cn1)C1CCc2c(CC(=O)O)c3ccccc3n2C1 (centres unmarked) [Example 1, 2-(7-((5-chloropyrimidin-2-yl)(methyl)amino)-6,7,8,9-tetrahydropyrido[1,2-a]indol-10-yl)acetic acid] | 21 | 66 |
| CN(c1ncc(C(F)(F)F)cn1)C1CCc2c(CC(=O)O)c3ccc(F)cc3n2C1 (centres unmarked) [Example 18, 2-(3-fluoro-7-(methyl(5-(trifluoromethyl)pyrimidin-2-yl)amino)-6,7,8,9-tetrahydropyrido[1,2-a]indol-10-yl)acetic acid] | 6 | 71 |
| CN(c1ncc(F)cn1)C1CCc2c(CC(=O)O)c3cc(OC(F)(F)F)ccc3n2C1 (centres unmarked) [Example 25, 2-(7-((5-fluoropyrimidin-2-yl)(methyl)amino)-2-(trifluoromethoxy)-6,7,8,9-tetrahydropyrido[1,2-a]indol-10-yl)acetic acid] | 141 |  |
| CN(c1ncc(Cl)cn1)C1CCc2c(CC(=O)O)c3cc(OC(F)(F)F)ccc3n2C1 (centres unmarked) [Example 23, 2-(7-((5-chloropyrimidin-2-yl)(methyl)amino)-2-(trifluoromethoxy)-6,7,8,9-tetrahydropyrido[1,2-a]indol-10-yl)acetic acid] | 354 |  |
| Cc1ccc2c(c1)c(CC(=O)O)c1n2CC(N(C)c2ncc(F)cn2)CC1 (centres unmarked) [Example 13, 2-(7-((5-fluoropyrimidin-2-yl)(methyl)amino)-2-methyl-6,7,8,9-tetrahydropyrido[1,2-a]indol-10-yl)acetic acid] | 417 |  |
